Reference: article PMC10818380, “Triphenylphosphonium Analogs of Short Peptide Related to Bactenecin 7 and Oncocin 112 as Antimicrobial Agents” (Pharmaceutics, 2024)

Columns and labels:
[1] = tested on: E. coli JW5503 (∆tolC) (KanS) pDualrep2; test: pDualrep2 double-reporter agar plate test; format: cell-based; details: 1 µL of 10 mM solution on agar plate
Method: The “pDualrep2” system was used to evaluate the mechanism of the antimicrobial action of the synthesized compounds. This system is based on the hypersensitive strain E. coli JW5503 (∆tolC) (KanS) transformed with the “pDualrep2” plasmid, which allows one to sort out suppressors of protein synthesis or SOS response inducers. Briefly, 1 µL of 10 mM water solutions of Bac(1–10), Bac(1–10, R/Y), Bac(1–10, R/Y)-Cn-TPP, TPP-C10-Bac(1–10, R/Y), and Onc112 were applied onto the agar plate that already contained a layer of the reporter strain E. coli JW5503 (∆tolC) (KanS) pDualrep2, and then the plate was incubated overnight at 37 °C. The agar plate was scanned using the ChemiDoc^TM Imaging System (Bio-Rad Laboratories, Hercules, CA, USA), containing two channels, “Cy3-blot” (553/574 nm; green pseudocolor) for Turbo Red Fluorescent Protein (TurboRFP) detection and “Cy5-blot” (588/633 nm; red pseudocolor) for Katushka2S fluorescence. […] Levofloxacin (LEV; 50 μg/mL, 1 μL) and erythromycin (ERY; 5 mg/mL, 1 μL) were utilized as positive controls for DNA and protein synthesis inhibitors, respectively.

B. subtilis 168 = test: microbe, parasite or virus in culture; format: cell-based
Method: (§1) The MIC values for Bac(1–10), Bac(1–10, R/Y), Bac(1–10, R/Y)-Cn-TPP, TPP-C10-Bac(1–10, R/Y), and Onc112 were determined via LB broth microdilution, as recommended by CLSI in the Methods for Dilution Antimicrobial Susceptibility Tests for Bacteria that Grow Aerobically, Approved Standard, 9th ed., CLSI document M07-A9, using in-house-prepared panels. The compounds were diluted in a 96-well microtiter plate to final concentrations ranging from 0.1 to 100 µM in a 200 µL aliquot of the bacterial suspension, followed by incubation at 37 °C for 18 h. The cell concentration was estimated according to the absorbance (A600). The measurements were performed with a VICTOR X5 Multilabel Plate Reader (PerkinElmer, Waltham, MA, USA). The following bacterial strains were used: E. coli BW25113, E. coli JW0368 ΔsbmA, B. subtilis 168, and B. subtilis CFR [39].

B. subtilis CFR = test: microbe, parasite or virus in culture; format: cell-based; details: 18 h
Method: as §1

E. coli BW25113 = test: microbe, parasite or virus in culture; format: cell-based; details: E. coli BW25113, 37 °C, 18 h
Method: as §1

E. coli JW0368 ΔsbmA = test: microbe, parasite or virus in culture; format: cell-based; details: for MIC: E. coli ∆sbmA, 37 °C, 18 h
Method: as §1

HEK293T = test: cells; format: cell-based, human; details: HEK293T, 72 h, MTT; read-out: IC50 (50% inhibition of viability of cells)
Method: (§2) The cytotoxicity of the substances under study was tested using the MTT (3-(4,5-dimethylthiazol-2-yl)-2,5-diphenyltetrazolium bromide) assay with some modifications. The detailed procedure for the MTT assay is given in the Supplementary Materials (Section S5).
(§3) Two thousand five hundred cells per well for the MCF7, HEK293T, and A549 cell lines or 4000 cells per well for the VA13 cell line were plated in 135 µL of DMEM-F12 media with 10% FBS (both Gibco, Waltham, MA, USA) in a 96-well plate and were incubated in a 5% CO2 incubator for the first 16 h, without treatment. Then 15 µL of media-DMSO solutions of the tested substances were added to the cells (the final DMSO concentrations in the media were 1% or less), and the cells were treated for 72 h with 25 nM–50 µM (eight dilutions) of the tested substances (triplicate each). Serial dilutions of DMSO and doxorubicin were used as controls. The MTT reagent (Paneco LLC, Moscow, Russia) was then added to the cells at a final concentration of 0.5 g/L (10× stock solution in PBS was used) and incubated for 2.5 h at 37 °C in the incubator under an atmosphere of 5%
(§4) CO2. The MTT solution was then discarded, and 140 µL of DMSO (PharmaMed LLC, Krasnodar, Russia) was added. The plates were swayed on a shaker (60 rpm) to dissolve the formazan. The absorbance was measured using the VICTOR X5 Multilabel Plate Reader (PerkinElmer, Wa l th a m, MA, USA) at a wavelength of 565 nm (in order to measure formazan concentration). The resu l ts were used to construct a dose-response graph and to estimate IC50 values.
(§5) Figure S11.The dependencies of viability of cells after treatment by tested compounds.
(§6) (1 picture or pasted object on this page, not shown here)

MCF7 = test: cells; format: cell-based, human; details: MCF7, 72 h, MTT; read-out: IC50 (50% inhibition of viability of cells)
Method: as §2, §3, §4, §5, §6

VA13 = test: cells; format: cell-based, human; details: VA13, 72 h, MTT; read-out: IC50 (50% inhibition of viability of cells)
Method: as §2, §3, §4, §5, §6

A549 = test: cells; details: read-out: IC50 (50% inhibition of viability of cells); A549, 72 h, MTT
Method: as §2, §3, §4, §5, §6

70S E. coli ribosome = test: Competition-binding assay, displacement of BODIPY-Bac(1–10), fluorescence anisotropy; details: CI (α = 0.05), read-out: apparent dissociation constant (KD)
Method: 70S ribosomes were isolated from E. coli MRE600 cells according to a published procedure. The binding of BODIPY-Bac(1–10) to 70S E. coli ribosomes was performed according to the following procedure. BODIPY-Bac(1–10) (16 nM) was incubated with ribosomes (from 0.5 nM to 2000 nM) for 2 h at 26 °C in a buffer containing 20 mM of HEPES-KOH (pH 7.5), 50 mM of NH4Cl, 10 mM of Mg(CH3COO)2, 4 mM of β-mercaptoethanol, and 0.05% Tween-20. The binding affinities of peptides 1 and 2, their TPP analogs 3–5, as well as the control compounds for the E. coli ribosome were analyzed via a competition-binding assay using fluorescently labeled BODIPY-Bac(1–10) or BODIPY-ERY, as described before in [38, 54]. The fluorescent compound (16 nM) was mixed with ribosomes (84 nM for BODIPY-Bac(1–10) and 46 nM for BODIPY-ERY) in the buffer. Solutions of the tested compounds were added to the obtained complexes to final concentrations ranging from 0.01 to 100 µM. The mixtures were incubated for 2 h at 26 °C, and then the values of fluorescence anisotropy were measured with a VICTOR X5 Multilabel Plate Reader (PerkinElmer, Waltham, MA, USA) using a 384-well plate. The excitation wavelength was 485 nm, and the emission wavelength was 535 nm. From the data obtained, apparent dissociation constants were calculated.

[2] = tested on: bacterial translation (E. coli S30 extract); test: In vitro translation inhibition of firefly luciferase mRNA, E. coli S30 extract; format: biochemical; details: 30 µM
Method: Briefly, in vitro-transcribed firefly luciferase mRNA (fluc) was translated using the E. coli S30 Extract System for Linear Templates (Promega, Madison, WI, USA). Reaction mixtures (with a 5 μL total volume) supplemented with 0.1 mM of a mixture of all canonical amino acids, 4 U of RiboLock RNase Inhibitor (Thermo Fisher Scientific, Waltham, MA, USA), and 0.1 mM of D-luciferin (Sigma-Aldrich, Burlington, MA, USA) were pre-incubated at RT for 5 min after the addition of the tested compounds at a final concentration of 30 µM. Then, 50 ng of the mRNA was added to each reaction tube, and the mixtures were immediately subjected to continuous chemiluminescence measurements using the VICTOR X5 Multilabel Plate Reader (PerkinElmer, Waltham, MA, USA) at 37 °C for 30 min. The maximal rates of the firefly luciferase (Fluc) accumulation were calculated using the OriginPro 7.5 software. The values were normalized to a positive control (0.3% DMSO, assigned a value of 100%).

B. subtilis = test: Membrane potential with fluorescent probe diS-C3-(5); format: cell-based; details: 50 µM, diS-C3-(5) fluorescence
Method: The membrane potential of B. subtilis was assessed by measuring the fluorescence emitted by the potential-dependent probe, diS-C3-(5). Bacterial cells derived from the overnight culture of B. subtilis were inoculated into a fresh LB medium and allowed to grow for 24 h until reaching an optical density of 0.8 at 600 nm. Subsequently, the bacteria were subjected to a 20-fold dilution in a buffer comprising 100 mM of KCl and 10 mM of Tris, adjusted to a pH of 7.4. Fluorescence measurements were conducted at 670 nm (with excitation at 630 nm) using a Fluorat-02-Panorama fluorimeter manufactured by Lumex Instruments in St. Petersburg, Russia.

[3] = B. subtilis-CFR (chloramphenicol-resistant), 37 °C

Compound	inhibitory effect on growth of bacterial cells [1]	reporter induction (Katushka2S red pseudocolor = protein synthesis inhibition) [1]	MIC (B. subtilis 168; B. subtilis 168, 37 °C, 18 h)	MIC (B. subtilis CFR; [3])	MIC (E. coli BW25113)	MIC (E. coli JW0368 ΔsbmA)	comparison of MIC values, E. coli ΔsbmA versus wild type (E. coli JW0368 ΔsbmA; MIC values of Table 1)	IC50 (HEK293T)	IC50 (MCF7)	IC50 (VA13)	IC50 (A549)	Kd (70S E. coli ribosome)	inhibition of bacterial translation of firefly luciferase (Fluc) mRNA [2]	MIC (B. subtilis 168; 168, 18 h)	MIC (B. subtilis CFR; CFR)	effect on membrane potential of B. subtilis (B. subtilis)
CCCCCCCCCC[P+](c1ccccc1)(c1ccccc1)c1ccccc1 [C10-TPP, reference compound]	caused a large growth inhibition zone	did not induce the reporters	1.6 µM	0.8 µM	50 µM	50 µM	the same	< 160 nM	250 ± 70 nM	< 160 nM	< 160 nM					
CCCC[P+](c1ccccc1)(c1ccccc1)c1ccccc1 [C4-TPP, reference compound]			>100 µM	>100 µM	>100 µM	>100 µM		2900 ± 500 nM	8000 ± 2000 nM	11000 ± 2000 nM	6200 ± 900 nM					
H-RRIRPRPPRL-OH [Compound 1, Bac(1–10)]	did not exhibit any antibacterial activity											1400 ± 100 nM	practically did not inhibit	>50 µM	>50 µM	did not affect the membrane potential
